Experimental data taken from PubChem BioAssay (NCI).
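Dose response: 5 concentrations. Exposure: 48 h. Format: 96-well plates. Endpoint: linear interpolation; highest concentration if not reached. The concentration for 50% growth inhibition is given as GI50. TGI: total growth inhibition.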 *1 amine or outer side, *2 acyl side, *3 side chain or, on linkers, in order; H or OH if unused. Where a SMILES comes first, the peptide text is derived from it. Bridges are numbered along the chain shown (N, C = ends). Roman numbers before positions name the chains, in order. [ ]: non-standard residue; d: D form. Actinocin(9to1) = Cc1c2oc3c(C)ccc(C(=O)[*:1])c3nc-2c(C(=O)[*:2])c(N)c1=O; NMeV = CN[CH](C(=O)O)C(C)C; Sar = CNCC(=O)O

Columns and labels:
Assay in all cases: inhibition of tumour cell growth, NCI panel, 48 h
K-562 leukemia = system: K-562 leukemia
HS 578T breast = system: HS 578T breast
COLO 205 colon = system: COLO 205 colon
SF-268 CNS = system: SF-268 CNS
HCT-15 colon = system: HCT-15 colon
HOP-92 NSCLC = system: HOP-92 NSCLC
SNB-19 CNS = system: SNB-19 CNS
MDA-MB-231 breast = system: MDA-MB-231 breast
OVCAR-4 ovarian = system: OVCAR-4 ovarian
DU-145 prostate = system: DU-145 prostate

Row | Structure (SMILES) | TGI (K-562 leukemia) [µM] | TGI (HS 578T breast) [µM] | TGI (COLO 205 colon) [µM] | TGI (SF-268 CNS) [µM] | TGI (HCT-15 colon) [µM] | TGI (HOP-92 NSCLC) [µM] | TGI (SNB-19 CNS) [µM] | TGI (MDA-MB-231 breast) [µM] | TGI (OVCAR-4 ovarian) [µM] | TGI (DU-145 prostate) [µM] | GI50 (HS 578T breast) [µM] | GI50 (COLO 205 colon) [µM] | GI50 (SF-268 CNS) [µM] | GI50 (HOP-92 NSCLC) [µM] | GI50 (SNB-19 CNS) [µM]
1 | Nc1cc2ncnc(Nc3cccc(Br)c3)c2cn1 | > 100 | > 100 | > 100 | > 100 | > 100 | > 100 | > 100 | > 100 | > 100 | – | – | – | – | – | –
2 | Cn1c(O)c(/C=N/c2ncccn2)c(=O)[nH]c1=O | – | > 100 | > 100 | > 100 | > 100 | > 100 | > 100 | > 100 | > 100 | > 100 | – | – | – | – | –
3 | CCCCNC(=S)Nc1nc(C(=O)NNC(=S)NCc2ccccc2)cs1 | > 100 | – | > 100 | > 100 | > 100 | – | – | > 100 | > 100 | > 100 | – | – | – | – | –
4 | COC(=O)c1c(C)cccc1C1CN=NC12Cc1cccc(C)c1C2=O (stereo unspecified) | 79.5 | > 100 | > 100 | > 100 | > 100 | 47.6 | > 100 | – | > 100 | > 100 | – | – | – | – | –
5 | C=C1C(=O)O[C@H]2[C@H]1CC/C(COC(=O)/C=C/C(=O)OC/C1=C/CC[C@@]3(C)O[C@H]3[C@H]3OC(=O)C(=C)[C@@H]3CC1)=C\CC[C@@]1(C)O[C@@H]21 | – | > 100 | 1.24 | > 100 | – | 1.8 | > 100 | – | – | – | 3.22 | 0.351 | 3.19 | 0.549 | 5.49
6 | CCOc1ccccc1N=NC1C(=O)N(C(=O)CC(=O)Nc2ccccc2OC)N=C1C (stereo unspecified) | – | 12.2 | > 100 | 68.8 | 79.8 | 56.8 | – | > 100 | > 100 | > 100 | – | – | – | – | –
7 | O=c1cnc2cc3ccccc3cc2[nH]1 | > 100 | > 100 | > 100 | > 100 | > 100 | > 100 | > 100 | > 100 | > 100 | – | – | – | – | – | –
8 | c1ccc2c(c1)ccc1nc(-c3ccc4c(c3)OCO4)c3c(c12)CCC3 | > 100 | > 100 | > 100 | > 100 | > 100 | – | > 100 | > 100 | > 100 | – | – | – | – | – | –
9 | CCC(=O)Nc1ccc(N2C(=O)/C(=C/c3ccc(O)c(OC)c3)N=C2c2ccccc2)cc1 | > 100 | > 100 | – | > 100 | > 100 | > 100 | > 100 | – | > 100 | > 100 | – | – | – | – | –
10 | Cc1ccc(Cl)c2c(=O)cc(-c3ccccc3)[nH]c12 | > 100 | – | > 100 | > 100 | > 100 | > 100 | – | – | > 100 | – | – | – | – | – | –
11 | Oc1ccc(O)c(Sc2nnc(CCCCCCCCc3nnc(Sc4cc(O)ccc4O)o3)o2)c1 | > 100 | – | > 100 | > 100 | > 100 | 65.7 | > 100 | > 100 | > 100 | > 100 | – | – | – | – | –
12 | Cc1c2oc3c(C)ccc(C(=O)NC4C(=O)NC(Cc5ccc(O)cc5)C(=O)N5CCCC5C(=O)N(C)CC(=O)N(C)C(C(C)C)C(=O)OC4C)c3nc-2c(C(=O)NC2C(=O)NC(Cc3ccc(O)cc3)C(=O)N3CCCC3C(=O)N(C)CC(=O)N(C)C(C(C)C)C(=O)OC2C)c(N)c1=O (stereo unspecified) (I: TYP[Sar][NMeV] / II: TYP[Sar][NMeV]; ester I:1-I:C, II:1-II:C; linker I:N-II:N via Actinocin(9to1); configuration not given here) | > 100 | 67.3 | > 100 | > 100 | > 100 | – | > 56.1 | > 66.9 | > 42.1 | > 72.7 | – | – | – | – | –
13 | COc1ccc(C[C@H]2COC(=O)[C@@H]2Cc2ccccc2)cc1OC | > 100 | > 100 | – | – | – | – | > 100 | > 100 | – | > 100 | – | – | – | – | –
14 | Cn1cnc(/C=C/C#N)c1 | > 100 | – | > 100 | > 100 | > 100 | > 100 | > 100 | > 100 | > 100 | – | – | – | – | – | –
15 | O=c1oc2ccccc2c(O)c1C(c1ccc(O)cc1)c1c(O)c2ccccc2oc1=O | – | > 100 | > 100 | 67.2 | > 100 | > 100 | > 100 | 77.7 | > 100 | > 100 | – | – | – | – | –
16 | CC(C)Oc1cc2c(cc1O)CC[C@@H]1[C@@H]2CC[C@]2(C)[C@@H](O)CC[C@@H]12 | 30.8 | – | 40.7 | 51.7 | 19.1 | 33.5 | 31.8 | 26.6 | 61.1 | 59.7 | – | – | – | – | –
17 | CN(c1ccc(Cl)cc1)S(=O)(=O)c1ccccc1 | > 100 | > 100 | > 100 | > 100 | > 100 | – | > 100 | > 100 | > 100 | > 100 | – | – | – | – | –
